Assay results reported in patent US20250170140A1, “PHARMACEUTICAL COMPOSITION FOR PREVENTING OR TREATING CANCER COMPRISING CARNITINE ACYLCARNITINE CARRIER INHIBITOR AND PEROXISOMAL BETA OXIDATION INHIBITOR” (priority 2021, published 2025).

Experiments:
Format in all cases: cell-based
[1] = tested on: MCF-7 cells; assay: SRB assay, breast cancer cell line MCF-7
Protocol: To determine the effect of the combination treatment of omeprazole (KN510), a carnitine acylcarnitine carrier inhibitor, and thioridazine (KN714), a peroxisome beta-oxidation inhibitor, on cancer cell growth, the extent of cancer cell death was determined using the SRB assay (Sulforhodamine B colorimetric assay), and the degree of cancer cell growth was analyzed relative to the control (100%). As a comparison, omeprazole (KN510) and trimetazidine (KN713), a 3-ketoacyl CoA thiolase inhibitor, were co-treated.
First, a pancreatic cancer cell line, MIA PaCa-2, was prepared, and cells (100 μl) were inoculated into 96-well cell culture plates at plating densities ranging from 5,000 to 20,000 cells/well, depending on the doubling time of each cell line. After cell inoculation, 96-well cell culture plates were incubated for 24 hours before the addition of experimental drugs. MIA PaCa2 cells were treated with omeprazole (KN510) at concentrations of 10^−8 M, 10^−7 M, 10^−6 M, 10^−5 M, 10^−4 M, and 10^−3 M, thioridazine (KN714) at concentrations of 10^−10 M, 10^−9 M, 10^−8M, 10^−7 M, 10^−6 M, and 10^−5 M, and trimetazidine (KN713) at concentrations of 10^−7 M, 10^−6 M, 10^−5 M, 10^−4 M, 10^−3 M, and 10^−2 M, respectively.
(§1) The cells were then incubated in a CO2 incubator for 48 hours, after which the assay was terminated by the addition of cold TCA. Cells were fixed in situ by gently adding 50 μl of cold 50% (w/v) TCA (final concentration: 10% TCA) and incubated at 4° C. for 60 min. The supernatant was discarded, and the plate was washed five times with distilled water and air dried. Sulforhodamine B (SRB) solution (100 μl) of 0.4% (w/v) in 1% acetic acid was added to each well, and the plate was left at room temperature for 10 min. After staining, unbound dye was removed by washing five times with 1% acetic acid, and the plate was air-dried. The bound dye was then solubilized with 10 mM trizma base, and the absorbance was recorded at 515 nm using an automated plate reader.
Based on Table 1 above and GI50 values, omeprazole (KN510) and/or thioridazine (KN714) concentrations were added to each well such that the concentrations were as shown in the following groups, and then cancer cell death was measured in the same manner as in Examples 1-1 above. • 1) Control, • 2) Thioridazine (KN714) 5 μM alone treatment group, • 3) Thioridazine (KN714) 10 μM alone treatment group, • 4) Omeprazole (KN510) 200 μM alone treatment group, • 5) Omeprazole (KN510) 200 μM+thioridazine (KN714) 5 μM combination treatment group, • 6) Omeprazole (KN510) 200 μM+thioridazine (KN714) 10 μM combination treatment group.
When the anticancer activity of two compounds in combination is greater than the simple sum of the anticancer activity of the individual compounds (expected activity), this is called synergistic. The predicted synergistic activity of a combination of the present invention can be calculated using the Colby Equation in Equation 1 (S.R. Colby, Weeds, 1967, pp. 15, 20-22): […]
In the present invention, the actual measure of anti-cancer activity of the combination treatment was the inhibition rate of cancer cell growth (%), and the predicted value (E) of the combination treatment was measured by substituting it into the above Colby Equation. If the actual value is greater than the predicted value, it can be judged that there is a synergistic effect, and in this invention, the predicted value calculated by the Colby Equation and the actual value were compared to further verify the synergistic effect of the combination.
Experiments were performed using the breast cancer cell lines MCF-7 cells (1.2×10^4 cells/well) and MDA-MB-231 cells (8.0×10^3 cells/well) in the same manner as in Examples 1-2 and 1-3 above.

[2] = tested on: DU-145 cells; assay: SRB assay, prostate cancer cells DU-145
Protocol: as §1, with “As a comparison, omeprazole (KN510) and trimetazidine (KN713), a 3-ketoacyl CoA thiolase inhibitor, were co-treated. […] After cell inoculation, 96-well cell culture plates were incubated for 24 hours before the addition of experimental drugs. […] The cells” for “The cells”, “plate reader. […] The predicted synergistic activity of a combination of the present invention can be calculated using the Colby Equation in Equation 1 (S.R. Colby, Weeds, 1967, pp. 15, 20-22): In the present invention, the actual measure of anti-cancer activity of the combination treatment was the inhibition rate of cancer cell growth (%), and the predicted value (E) of the combination treatment was measured by substituting it into the above Colby Equation.” for “plate reader.”

[3] = tested on: ACHN cells; assay: SRB assay, renal cell carcinoma cell line ACHN
Protocol: as §1, with “As a comparison, omeprazole (KN510) and trimetazidine (KN713), a 3-ketoacyl CoA thiolase inhibitor, were co-treated. […] After cell inoculation, 96-well cell culture plates were incubated for 24 hours before the addition of experimental drugs. […] The cells” for “The cells”, “plate reader. […] The predicted synergistic activity of a combination of the present invention can be calculated using the Colby Equation in Equation 1 (S.R. Colby, Weeds, 1967, pp. 15, 20-22): In the present invention, the actual measure of anti-cancer activity of the combination treatment was the inhibition rate of cancer cell growth (%), and the predicted value (E) of the combination treatment was measured by substituting it into the above Colby Equation.” for “plate reader.”

[4] = tested on: SR cells; assay: SRB assay, leukemia cell line SR
Protocol: as §1, with “As a comparison, omeprazole (KN510) and trimetazidine (KN713), a 3-ketoacyl CoA thiolase inhibitor, were co-treated. […] After cell inoculation, 96-well cell culture plates were incubated for 24 hours before the addition of experimental drugs. […] The cells” for “The cells”, “plate reader. […] The predicted synergistic activity of a combination of the present invention can be calculated using the Colby Equation in Equation 1 (S.R. Colby, Weeds, 1967, pp. 15, 20-22): In the present invention, the actual measure of anti-cancer activity of the combination treatment was the inhibition rate of cancer cell growth (%), and the predicted value (E) of the combination treatment was measured by substituting it into the above Colby Equation.” for “plate reader.”

[5] = tested on: UACC-62 cells; assay: SRB assay, melanoma cell line UACC-62
Protocol: as §1, with “As a comparison, omeprazole (KN510) and trimetazidine (KN713), a 3-ketoacyl CoA thiolase inhibitor, were co-treated. […] After cell inoculation, 96-well cell culture plates were incubated for 24 hours before the addition of experimental drugs. […] The cells” for “The cells”, “plate reader. […] The predicted synergistic activity of a combination of the present invention can be calculated using the Colby Equation in Equation 1 (S.R. Colby, Weeds, 1967, pp. 15, 20-22): In the present invention, the actual measure of anti-cancer activity of the combination treatment was the inhibition rate of cancer cell growth (%), and the predicted value (E) of the combination treatment was measured by substituting it into the above Colby Equation.” for “plate reader.”

[6] = tested on: SK-HEP-1 cells; assay: SRB assay, liver cancer cell line SK-HEP-1
Protocol: as §1, with “As a comparison, omeprazole (KN510) and trimetazidine (KN713), a 3-ketoacyl CoA thiolase inhibitor, were co-treated. […] After cell inoculation, 96-well cell culture plates were incubated for 24 hours before the addition of experimental drugs. […] The cells” for “The cells”, “plate reader. […] The predicted synergistic activity of a combination of the present invention can be calculated using the Colby Equation in Equation 1 (S.R. Colby, Weeds, 1967, pp. 15, 20-22): In the present invention, the actual measure of anti-cancer activity of the combination treatment was the inhibition rate of cancer cell growth (%), and the predicted value (E) of the combination treatment was measured by substituting it into the above Colby Equation.” for “plate reader.”

[7] = tested on: DLD-1 cells; assay: SRB assay, colon cancer cell line DLD-1
Protocol: as §1, with “As a comparison, omeprazole (KN510) and trimetazidine (KN713), a 3-ketoacyl CoA thiolase inhibitor, were co-treated. […] After cell inoculation, 96-well cell culture plates were incubated for 24 hours before the addition of experimental drugs. […] The cells” for “The cells”, “plate reader. […] The predicted synergistic activity of a combination of the present invention can be calculated using the Colby Equation in Equation 1 (S.R. Colby, Weeds, 1967, pp. 15, 20-22): In the present invention, the actual measure of anti-cancer activity of the combination treatment was the inhibition rate of cancer cell growth (%), and the predicted value (E) of the combination treatment was measured by substituting it into the above Colby Equation.” for “plate reader.”

[8] = tested on: OVCAR-8 cells; assay: SRB assay, ovarian cancer cells OVCAR-8
Protocol: as §1, with “As a comparison, omeprazole (KN510) and trimetazidine (KN713), a 3-ketoacyl CoA thiolase inhibitor, were co-treated. […] After cell inoculation, 96-well cell culture plates were incubated for 24 hours before the addition of experimental drugs. […] The cells” for “The cells”, “plate reader. […] The predicted synergistic activity of a combination of the present invention can be calculated using the Colby Equation in Equation 1 (S.R. Colby, Weeds, 1967, pp. 15, 20-22): In the present invention, the actual measure of anti-cancer activity of the combination treatment was the inhibition rate of cancer cell growth (%), and the predicted value (E) of the combination treatment was measured by substituting it into the above Colby Equation.” for “plate reader.”

[9] = Homo sapiens, KN714 5 μM, read-out: Inhibition rate of cancer cell growth (%) (Actual value)
[10] = Homo sapiens, KN714 10 μM, read-out: Inhibition rate of cancer cell growth (%) (Actual value)

For CSc1ccc2c(c1)N(CCC1CCCCN1C)c1ccccc1S2 (centres unmarked) [KN714, 10-[2-(1-methyl-2-piperidyl)ethyl]-2-(methylthio)phenothiazine], the inhibition at 5 µM ([1]; Homo sapiens, MCF7, KN714 5 μM, read-out: Inhibition rate of cancer cell growth (%) (Actual value)) was 1.49%, the inhibition at 10 µM ([1]; Homo sapiens, MCF7, KN714 10 μM, read-out: Inhibition rate of cancer cell growth (%) (Actual value)) was 60.3% and the “Cancer cell growth rate Average (%)” value ([1]; KN714 5 μM) was 98.51%. For the same compound, the “Cancer cell growth rate Average (%)” value ([1]; KN714 10 μM) was 39.69%, the inhibition at 5 µM [2, 9] was 24.5% and the inhibition at 10 µM [2, 10] was 44.7%. The “Cancer cell growth rate Average (%)” value ([2]; KN714 5 μM) was 75.49%, the “Cancer cell growth rate Average (%)” value ([2]; KN714 10 μM) was 55.27% and the inhibition at 5 µM [3, 9] was -2.76%. For the same compound, the inhibition at 10 µM [3, 10] was 29.6%, the “Cancer cell growth rate Average (%)” value ([3]; KN714 5 μM) was 102.76% and the “Cancer cell growth rate Average (%)” value ([3]; KN714 10 μM) was 70.39%. The inhibition at 5 µM [4, 9] was 37.2%, the inhibition at 10 µM [4, 10] was 111% and the “Cancer cell growth rate Average (%)” value ([4]; KN714 5 μM) was 62.75%. The “Cancer cell growth rate Average (%)” value ([4]; KN714 10 μM) was −11.34%, the inhibition at 5 µM [5, 9] was 10.6% and the inhibition at 10 µM [5, 10] was 60.5%. The “Cancer cell growth rate Average (%)” value ([5]; KN714 5 μM) was 89.43%, the “Cancer cell growth rate Average (%)” value ([5]; KN714 10 μM) was 39.54% and the inhibition at 5 µM ([6]; Homo sapiens, SK-HEP1, KN714 5 μM, read-out: Inhibition rate of cancer cell growth (%) (Actual value)) was 17.6%. The inhibition at 10 µM ([6]; Homo sapiens, SK-HEP1, KN714 10 μM, read-out: Inhibition rate of cancer cell growth (%) (Actual value)) was 40.1%, the “Cancer cell growth rate Average (%)” value ([6]; KN714 5 μM) was 82.37% and the “Cancer cell growth rate Average (%)” value ([6]; KN714 10 μM) was 59.94%. The inhibition at 5 µM [7, 9] was 8.66%, the inhibition at 10 µM [7, 10] was 13.1% and the “Cancer cell growth rate Average (%)” value ([7]; KN714 5 μM) was 91.34%. The “Cancer cell growth rate Average (%)” value ([7]; KN714 10 μM) was 86.87%, the inhibition at 5 µM [8, 9] was 6.92% and the inhibition at 10 µM [8, 10] was 55.1%. The “Cancer cell growth rate Average (%)” value ([8]; KN714 5 μM) was 93.08% and the “Cancer cell growth rate Average (%)” value ([8]; KN714 10 μM) was 44.89%.
